Experimental data taken from publication PMC5444710, “Enhancement of radiosensitivity by the novel anticancer quinolone derivative vosaroxin in preclinical glioblastoma models” (Oncotarget, 2017).

Key:
T98G xenografts = assay: Subcutaneous xenograft model: tumor weight and time to progression; format: in vivo, female CD1-nu/nu mice; conditions: for HR (95% CI) for tumor progression: T98G
Experimental: Female CD1-nu/nu mice, at 6 weeks of age, were purchased from Charles River (Milan, Italy) under the guidelines established by our institution (University of L’Aquila, Medical School and Science and Technology School Board Regulations, complying with Italian government regulation n.116, January 27, 1992, for the use of laboratory animals). All mice received subcutaneous flank injections (2 each) of 1 × 10^6 U251, U87MG, and T98G cells representing models for MGMT-negative and MGMT-positive cells. Tumor growth was assessed biweekly by measuring tumor diameters with a Vernier caliper (length × width). Tumor weight was calculated according to the formula tumor weight (mg) = tumor volume (mm^3) = d2 × D/2, where d and D are the shortest and longest diameters, respectively. The effects of the treatments were assessed as previously described. At about 10 days after the tumor injection, 30 mice with tumor volumes of 0.5–0.8 cm^3 were randomly divided into 6 groups (5 mice per group with 2 tumors each): (1) control (vehicle); (2) vosaroxin (10 mg/kg every 5 days for 5 weeks intravenous [IV] injection into tail vein; (3) radiotherapy (RT; 4 Gy delivered in a single fraction); (4) vosaroxin in combination with RT; (5) temozolomide (16 mg/kg 5 consecutive days) and (6) temozolomide in combination with RT. Anesthetized tumor-bearing mice received focal irradiation. Irradiation was delivered using an x-ray linear accelerator at a dose rate of 200 cGy/min at room temperature. All mice were shielded with a specially designed lead apparatus to allow irradiation to the right hind limb. At the end of the study (35 days after the start of treatments), animals were sacrificed by carbon dioxide inhalation and tumors were then removed surgically. Half of the tumor was directly frozen in liquid nitrogen for protein analysis and the other half was fixed in paraformaldehyde overnight for immunohistochemical analyses.
The following parameters were used to quantify the antitumor effects of different treatments as previously described: tumor volume, measured throughout the experiment; tumor weight, measured at the end of the experiment; tumor progression, defined as an increase of greater than 50% of tumor volume with respect to baseline; and time to progression (TTP), defined as the time until tumor progression was observed from baseline. Tumor size was measured with calipers and the TTP of a single tumor was calculated. TTP data were used to generate Kaplan-Meier curves for progression. This method of analysis was described previously, and may reduce both inter-subject variability resulting from differences in engraftment efficacy as well as intra-subject variability in response.
In vivo drug combination studies were evaluated using CalcuSyn. For CI calculations of dual administration, the values of % cell kill (%CK) for a fixed tumor volume were determined by the log CK (LCK). LCK was calculated as LCK = (T − C) / (3.32 × Td), where Td represented the mean control group doubling time required to reach a fixed tumor volume, expressed in days. T and C were the mean times in days required to reach the same fixed tumor volume in the treated group and the control group, respectively. CK was calculated as %CK = [1 − (1 − 10LCK)] × 100. Tumor growth delay (TGD) was calculated as %TGD = [(T − C) / C] × 100, where T and C were the same values as those reported by Bruzzese et al..

[1] = system: P-glycoprotein drug pumps; design: method as in PMID 23688047; conditions: cited from earlier work
[2] = system: luciferase-transfected U251 cells; assay: Orthotopic intra-brain model (DFS, OS)
caspase-3 = assay: Caspase-3 activity (ELISA); format: cell-based, human; conditions: addition of vosaroxin (IC20) to RT
Experimental: (§1) After appropriate treatments, tumor cell cultures and tissues were harvested for analysis of cytokine expression. Cell pellets were washed with PBS and lysed with RIPA buffer. Cell lysates and conditioned media were assayed by ELISA to measure (i) active human caspase-3 (CBA045, Merck Chemicals Ltd., Nottingham, UK), (ii) beclin-1 (E98557Hu, USCN Life Sciences, Houston, TX, USA), and (iii) DNA damage (EpiQuik in situ DNA Damage Assay Kit, Epigentek, Farmingdale, NY, USA).

[3] = system: U87MG, U251, and T98G xenografts; assay: iNOS and arginase-1 expression in xenograft tissue extracts; format: in vivo, female CD1-nu/nu mice; conditions: tissue extracts from U87MG
Experimental: as §1, with “USA). Tumor extracts were analyzed for the presence of:” for “USA).”
• MMP-2 (KHC3081) • TNF-α (KHC3011, Life Technologies Italia, Monza, Italy) • CXCR4 (Cyto Glow CXCR4 [pSer339], cell-based ELISA, Assay Biotech, Sunnyvale, CA, USA) • Human Fas ligand (ELH-FASL, RayBiotech, Norcross, GA, USA) • IL-6 (orb50052) and survivin (orb50135) (Biorbyt) • TGF-β1 (Quantikine ELISA Kit, DB100B, R&D Systems, Minneapolis, MN, USA) • SDF-1α (Human CXCL12/SDF-1α Quantikine ELISA Kit, DSA00, R&D Systems) • Mouse IL-10 DuoSet ELISA DY417 (R&D Systems Minneapolis, MN, USA) • Mouse NOS2 / iNOS ELISA Kit (Sandwich ELISA) - LS-F12166 (LifeSpan Biosciences, Inc, Seattle, WA, USA) • Mouse ARG1 / Arginase-1 ELISA Kit (Sandwich ELISA) - LS-F10883 (LifeSpan Biosciences, Inc, Seattle, WA, USA)

[4] = system: U87MG, U251, and T98G cells; assay: Autophagy: acidic vesicular organelle (AVO) staining; format: cell-based, human; conditions: vosaroxin at IC20 for each cell line added to RT 4 Gy; 24 hours
Source text: As a marker of autophagy we evaluated the presence of AVOs after staining of cell cultures with LysoTracker® Red DND-99 kit (Life Technologies Italia, Monza, Italy) according to the manufacturer’s instructions. The intensity of the red fluorescence is proportional to the degree of acidity. The percentage of autophagic cells was quantified with the Tali® Image-Based Cytometer (Life Technologies) measuring fluorescence emission at 590 nm with fluorescence excitation at 577 nm. The results were expressed as the percentage of cell AVOs stained in controls and in treated cultures.

## CN[C@H]1CN(c2ccc3c(=O)c(C(=O)O)cn(-c4nccs4)c3n2)C[C@@H]1OC [vosaroxin]
T98G xenografts; T98G xenografts, day 35, VSR 10 mg/kg q 5 d for 5 wk IV, TMZ 16 mg/kg 5 consecutive days, RT single 4 Gy
  final tumor weight reduction compared with vehicle controls: 60%
T98G xenografts; VSR vs TMZ + RT
  HR (95% CI) for tumor progression: 1.0 (0.4–2.4)
T98G xenografts; VSR vs TMZ
  HR (95% CI) for tumor progression: 0.5 (0.2–1.3)
T98G xenografts; VSR vs VSR + RT
  HR (95% CI) for tumor progression: 4.7 (1.5–14.6)
[1]
  substrate for P-glycoprotein drug pumps: not a substrate
[2]; VSR vs TMZ + RT
  Disease-free Survival HR (95% CI): 1.2 (0.4–3.2)
  Overall Survival HR (95% CI): 1.5 (0.5–3.0)
[2]; VSR vs VSR + RT
  Disease-free Survival HR (95% CI): 2.4 (1.1–8.8)
  Overall Survival HR (95% CI): 4.5 (2.2–22.5)
[2]; orthotopic U251-luciferase, treated for 35 days starting 5 days after cell injection
  mean time of recurrence (DFS) ± SE: 70.5 ± 7.3 days
caspase-3
  caspase-3 activity: increased
[3]
  arginase-1 expression (M2 marker): low expression
  iNOS expression (M1 marker): high expression
[4]
  RT-induced AVO staining: reduced
